Laboratory results published in US7465729B2, “Methods of treatment of menopause and perimenopause using eszopiclone” (Sepracor Inc., priority 2004, dated 2008).

Assays:
[1] = system: women with insomnia secondary to perimenopause or menopause; test: Clinical study: number of nocturnal awakenings due to hot flashes; type: in vivo; conditions: 3 mg nightly, ITT; for Number of Nocturnal Awakenings due to Hot Flashes, Change from Baseline, Least Squares Means (SE) [3]: ANCOVA; for Number of Nocturnal Awakenings due to Hot Flashes, Observed Value, Least Squares Means (SE) [2]: ANOVA
Method: (§1) The study was aimed at observing efficacy of eszopiclone 3 mg compared to placebo in the treatment of insomnia secondary to perimenopause or menopause. The study was a multicenter, randomized, double-blind, placebo-controlled, parallel-group study. […] The primary method of analysis compared the post-randomization results between the two treatment groups.
(§2) Subjects were women with insomnia secondary to perimenopause or menopause. Subjects were perimenopausal or menopausal and had insomnia symptoms including ≧45 minutes sleep latency (SL) and total sleep time (TST) ≦6 hours. Perimenopausal/menopausal symptoms predated the onset of sleep disturbance symptoms. The patient population was predominately Caucasian (77.2%). The mean age was 49, with a range of 40-60.
(§3) A total of 410 subjects were randomized. Among them, 201 received 3 mg of eszopiclone (ESZ) nightly (at bedtime) for four weeks and 209 received matching placebo (PBO).

[2] = system: women with insomnia secondary to perimenopause or menopause; test: Clinical study: discontinuation rates; type: in vivo; conditions: 3 mg nightly for four weeks
Method: as §1, §2, §3

[3] = system: muscarinic receptors; test: In vitro affinity for muscarinic receptors; type: binding
[4] = system: conscious dogs; test: Dose escalation safety study, cardiovascular and respiratory parameters; conditions: acute intravenous, 3, 5 and 12 mg/kg
Method: To establish the safety of eszopiclone, a dose escalation study was carried out. Cardiovascular and respiratory parameters were evaluated in conscious dogs following acute intravenous administration of (R)-, (S)- or racemic zopiclone at three doses (3, 5 and 12 mg/kg).

[5] = system: women with insomnia secondary to perimenopause or menopause; test: Clinical study: Physician Global Assessment of perimenopausal or menopausal symptoms; type: in vivo; conditions: ITT; for Physician Global Assessment, Observed Value, Mean (SD): score 1 = Very much improved to 7 = Very much worse; for Physician Global Assessment, Observed Value, Least Squares Means (SE) [1]: ANOVA
Method: as §1, §2, §3
A Physician Global Assessment was administered at Week 4, the end of the double-blind treatment period.

[6] = system: mice; test: Antimuscarinic activity in vivo: oxotremorine induced salivation; conditions: doses up to 300 mg/kg, p.o.
Method: Eszopiclone was evaluated for antimuscarinic activity in vivo.

With `CN1CCN(C(=O)O[C@H]2c3nccnc3C(=O)N2c2ccc(Cl)cn2)CC1` [Eszopiclone, (+)6-(5-chloropyrid-2-yl)-5-(4-methylpiperazin-1-yl)carbonyloxy-7-oxo-6,7-dihydro-5H-pyrrolo[3-4-b]pyrazine] the “Number of Nocturnal Awakenings due to Hot Flashes, Change from Baseline, Mean (SD)” value ([1]; Week 3) was −0.7 (1.1), the “Number of Nocturnal Awakenings due to Hot Flashes, Change from Baseline, Median” value ([1]; Week 3) was −0.4 and the “Number of Nocturnal Awakenings due to Hot Flashes, Change from Baseline, Minimum” value ([1]; Week 3) was −6.0. For the same compound, the “Number of Nocturnal Awakenings due to Hot Flashes, Observed Value, 25th Percentile” value ([1]; Week 3) was 0.0, the “Number of Nocturnal Awakenings due to Hot Flashes, Observed Value, 75th Percentile” value ([1]; Week 3) was 1.0 and the “Number of Nocturnal Awakenings due to Hot Flashes, Observed Value, Maximum” value ([1]; Week 3) was 3.0. The “Number of Nocturnal Awakenings due to Hot Flashes, Observed Value, Mean (SD)” value ([1]; Week 3) was 0.5 (0.7), the “Number of Nocturnal Awakenings due to Hot Flashes, Observed Value, Median” value ([1]; Week 3) was 0.0 and the “Number of Nocturnal Awakenings due to Hot Flashes, Observed Value, Minimum” value ([1]; Week 3) was 0.0. The “Number of Nocturnal Awakenings due to Hot Flashes, Change from Baseline, Least Squares Means (SE) [3]” value ([1]; Week 3) was −0.6 (0.1), the “Number of Nocturnal Awakenings due to Hot Flashes, Observed Value, Least Squares Means (SE) [2]” value ([1]; Week 3) was 0.5 (0.1) and the “Number of Nocturnal Awakenings due to Hot Flashes, Change from Baseline, 25th Percentile” value ([1]; Week 4) was −1.3. The “Number of Nocturnal Awakenings due to Hot Flashes, Change from Baseline, 75th Percentile” value ([1]; Week 4) was 0.0, the “Number of Nocturnal Awakenings due to Hot Flashes, Change from Baseline, Maximum” value ([1]; Week 4) was 2.1 and the “Number of Nocturnal Awakenings due to Hot Flashes, Change from Baseline, Mean (SD)” value ([1]; Week 4) was −0.8 (1.2). The “Number of Nocturnal Awakenings due to Hot Flashes, Change from Baseline, Median” value ([1]; Week 4) was −0.7, the “Number of Nocturnal Awakenings due to Hot Flashes, Change from Baseline, Minimum” value ([1]; Week 4) was −6.0 and the “Number of Nocturnal Awakenings due to Hot Flashes, Observed Value, 25th Percentile” value ([1]; Week 4) was 0.0. The “Number of Nocturnal Awakenings due to Hot Flashes, Observed Value, 75th Percentile” value ([1]; Week 4) was 1.0, the “Number of Nocturnal Awakenings due to Hot Flashes, Observed Value, Maximum” value ([1]; Week 4) was 3.6 and the “Number of Nocturnal Awakenings due to Hot Flashes, Observed Value, Mean (SD)” value ([1]; Week 4) was 0.4 (0.7). The “Number of Nocturnal Awakenings due to Hot Flashes, Observed Value, Median” value ([1]; Week 4) was 0.0, the “Number of Nocturnal Awakenings due to Hot Flashes, Observed Value, Minimum” value ([1]; Week 4) was 0.0 and the “Number of Nocturnal Awakenings due to Hot Flashes, Change from Baseline, Least Squares Means (SE) [3]” value ([1]; Week 4) was −0.7 (0.1). The “Number of Nocturnal Awakenings due to Hot Flashes, Observed Value, Least Squares Means (SE) [2]” value ([1]; Week 4) was 0.4 (0.1), the discontinuation rate [2] was 11.9% and the “in vitro affinity for muscarinic receptors” value [3] was “lack of in vitro affinity”. For the same compound, the “cardiotoxicity, as evidenced by the electrocardiogram (ECG)” value [4] was “No evidence of cardiotoxicity”, the “effect on blood pressure” value [4] was “dose dependent, transient decreases in blood pressure” and the “effect on heart rate” value [4] was “compensatory increase in heart rate”. For the same compound, the “Blood gases and blood chemistries (pH, pCO2, pO2, hematocrit, and lactate)” value ([4]; all dose groups) was “remained unaffected”, the “Physician Global Assessment, Observed Value, 25th Percentile” value ([5]; Visit 3 (Baseline), 3 mg group) was 4.0 and the “Physician Global Assessment, Observed Value, 75th Percentile” value ([5]; Visit 3 (Baseline), 3 mg group) was 4.0. The “Physician Global Assessment, Observed Value, Maximum” value ([5]; Visit 3 (Baseline), 3 mg group) was 7.0, the “Physician Global Assessment, Observed Value, Median” value ([5]; Visit 3 (Baseline), 3 mg group) was 4.0 and the “Physician Global Assessment, Observed Value, Minimum” value ([5]; Visit 3 (Baseline), 3 mg group) was 0.0. For the same compound, the “Physician Global Assessment, Observed Value, Mean (SD)” value ([5]; Visit 3 (Baseline), 3 mg group, 0 = Not assessed) was 3.7 (1.0), the “Physician Global Assessment, Change from Baseline, 25th Percentile” value ([5]; Visit 5 (Week 4), 3 mg nightly) was −2.0 and the “Physician Global Assessment, Change from Baseline, 75th Percentile” value ([5]; Visit 5 (Week 4), 3 mg nightly) was 0.0. The “Physician Global Assessment, Change from Baseline, Maximum” value ([5]; Visit 5 (Week 4), 3 mg nightly) was 6.0, the “Physician Global Assessment, Change from Baseline, Mean (SD)” value ([5]; Visit 5 (Week 4), 3 mg nightly) was −1.0 (1.4) and the “Physician Global Assessment, Change from Baseline, Median” value ([5]; Visit 5 (Week 4), 3 mg nightly) was −1.0. The “Physician Global Assessment, Change from Baseline, Minimum” value ([5]; Visit 5 (Week 4), 3 mg nightly) was −4.0, the “Physician Global Assessment, Observed Value, 25th Percentile” value ([5]; Visit 5 (Week 4), 3 mg nightly) was 2.0 and the “Physician Global Assessment, Observed Value, 75th Percentile” value ([5]; Visit 5 (Week 4), 3 mg nightly) was 4.0. For the same compound, the “Physician Global Assessment, Observed Value, Maximum” value ([5]; Visit 5 (Week 4), 3 mg nightly) was 6.0, the “Physician Global Assessment, Observed Value, Median” value ([5]; Visit 5 (Week 4), 3 mg nightly) was 2.0 and the “Physician Global Assessment, Observed Value, Minimum” value ([5]; Visit 5 (Week 4), 3 mg nightly) was 1.0. The “Physician Global Assessment, Change from Baseline, Least Squares Means (SE) [2]” value ([5]; Visit 5 (Week 4), 3 mg nightly, ANCOVA) was −0.9 (0.1), the “Physician Global Assessment, Observed Value, Least Squares Means (SE) [1]” value ([5]; Visit 5 (Week 4), 3 mg nightly) was 2.7 (0.1) and the “Physician Global Assessment, Observed Value, Least Squares Means (SE) [1]” value ([5]; Visit 5 (Week 4), 3 mg nightly, listed as ESZ) was 2.7. The “Physician Global Assessment, Observed Value, Mean (SD)” value ([5]; Visit 5 (Week 4), 3 mg nightly) was 2.6 (1.2) and the “antagonism of oxotremorine induced salivation” value [6] was “neither (R)-, (S)-, nor racemic zopiclone significantly antagonized oxotremorine induced salivation”.
